Laboratory results reported in patent publication US10407445B2, “Hepatitis C virus inhibitors” (ENANTA PHARMACEUTICALS, INC., priority 2013, dated 2019).

Assays:
Format in all cases: cell-based
[1] = system: GT1a replicon encoding NS5A mutation L31V; assay: Transient replication assay, GT1a replicon with NS5A mutation L31V; details: Hepatitis C virus, read-out: EC50 1a L31V
[2] = system: GT1a replicon encoding NS5A mutation M28T; assay: Transient replication assay, GT1a replicon with NS5A mutation M28T; details: Hepatitis C virus, read-out: EC50 1a M28T
[3] = system: GT1a replicon encoding NS5A mutation Y93C; assay: Transient replication assay, GT1a replicon with NS5A mutation Y93C; details: Hepatitis C virus, read-out: EC50 1a Y93C
HCV GT 3a replicon = assay: HCV replicon assay, GT2a chimeric replicon expressing NS5A from GT3a strain S52; details: Hepatitis C virus, 72 h, read-out: EC50 3a
Summary of the method: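 Stable Huh-7.5 lines carried JFH-1 subgenomic replicons with hRluc-Neo reporter, in which NS5A was swapped for GT3a strain S52 or GT2a strain J6 NS5A. Renilla luciferase was read after 72 h relative to DMSO controls.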

HCV GT 1b replicon = assay: HCV replicon assay, stable GT 1b replicon (Renilla luciferase); details: Hepatitis C virus, GT1B, 72 h
Summary of the method: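 Stable Huh-7.5-based GT1b replicon (Con1-derived) carrying hRluc-Neo, 4000 cells/well seeded onto a sixteen-point half-log compound series in G418-free, phenol red-free medium. After 72 h, Renilla luciferase is read relative to DMSO controls; CC50 in the same cells by CellTiter-Glo.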

SMILES | EC50 [1] [nM] | EC50 [2] [nM] | EC50 [3] [nM] | EC50 (HCV GT 3a replicon) [nM] | EC50 (HCV GT 1b replicon) [nM]
COC(=O)N[C@H](C(=O)N1C[C@]2(CCCOC2)C[C@H]1c1nc2ccc3cc(-c4ccc(-c5cnc([C@@H]6C[C@@H]7COC[C@@H]7N6C(=O)[C@@H](NC(=O)OC)C(C)C)[nH]5)cc4)ccc3c2[nH]1)C(C)C [Compound 34] | 0.08 | 0.03 | 0.09 | 1.5 | 0.041
COC(=O)N[C@H](C(=O)N1C[C@]2(CCCOC2)C[C@H]1c1ncc(-c2ccc(-c3ccc4c(ccc5nc([C@@H]6C[C@@H]7COC[C@@H]7N6C(=O)[C@@H](NC(=O)OC)C(C)C)[nH]c54)c3)cc2)[nH]1)C(C)C [Compound 35] | 0.5 | 0.2 | 0.4 | 2 | 0.049
COC(=O)N[C@H](C(=O)N1C[C@]2(CCCOC2)C[C@H]1c1nc2ccc3cc(-c4ccc5c(ccc6nc([C@@H]7C[C@@H]8COC[C@@H]8N7C(=O)[C@@H](NC(=O)OC)C(C)C)[nH]c65)c4)ccc3c2[nH]1)C(C)C [Compound 36] | 0.2 | 0.08 | 0.06 | 1 | 0.051
COC(=O)N[C@H](C(=O)N1C[C@]2(CCCOC2)C[C@H]1c1ncc(-c2ccc(-c3ccc(-c4cnc([C@@H]5C[C@@H]6CCC[C@@H]6N5C(=O)[C@@H](NC(=O)OC)C(C)C)[nH]4)cc3)cc2)[nH]1)C(C)C [Compound 37] | 0.5 | 0.03 | 1 | 3 | 0.009
COC(=O)N[C@H](C(=O)N1C[C@]2(CCCOC2)C[C@H]1c1ncc(-c2ccc(-c3ccc4c(c3)CCCc3nc([C@@H]5C[C@@H]6CCCC[C@@H]6N5C(=O)[C@@H](NC(=O)OC)C(C)C)[nH]c3-4)cc2)[nH]1)C(C)C [Compound 40] | 1 | 0.6 | 0.7 | 44 | 0.008
COC(=O)N[C@H](C(=O)N1C[C@]2(CCCOC2)C[C@H]1c1ncc(-c2ccc(-c3ccc4c(c3)OCc3nc([C@@H]5C[C@@H]6CCCC[C@@H]6N5C(=O)[C@@H](NC(=O)OC)C(C)C)[nH]c3-4)cc2)[nH]1)C(C)C [Compound 42] | 0.2 | 0.2 | 0.6 | 1 | 0.006
COC(=O)N[C@H](C(=O)N1CCC[C@H]1c1ncc(-c2ccc(-c3ccc4c(ccc5nc([C@@H]6C[C@@]7(CCCOC7)CN6C(=O)[C@@H](NC(=O)OC)C(C)C)[nH]c54)c3)cc2)[nH]1)C(C)C [Compound 44] | 0.6 | 0.06 | 0.2 | 0.06 | 0.016
COC(=O)N[C@H](C(=O)N1C[C@]2(CCCOC2)C[C@H]1c1ncc(-c2ccc(-c3ccc4c(ccc5nc([C@@H]6CCCN6C(=O)[C@@H](NC(=O)OC)C(C)C)[nH]c54)c3)cc2)[nH]1)C(C)C [Compound 47] | 1 | 0.2 | 0.3 | 0.08 | 0.016
COC(=O)N[C@H](C(=O)N1CCC[C@H]1c1nc2ccc3cc(-c4ccc5c(ccc6nc([C@@H]7C[C@@]8(CCCOC8)CN7C(=O)[C@@H](NC(=O)OC)C(C)C)[nH]c65)c4)ccc3c2[nH]1)C(C)C [Compound 48] | 0.5 | 0.05 | 0.02 | 0.07 | 0.009
COC(=O)N[C@H](C(=O)N1C[C@@]2(CCOC2)C[C@H]1c1ncc(-c2ccc(-c3ccc4c(ccc5nc([C@@H]6C[C@]7(CCOC7)CN6C(=O)[C@@H](NC(=O)OC)C(C)C)[nH]c54)c3)cc2)[nH]1)C(C)C [Compound 49] | 5 | 1 | 0.4 | 5 | 0.009
COC(=O)N[C@H](C(=O)N1C[C@@]2(CCOC2)C[C@H]1c1ncc(-c2ccc(-c3ccc4c(ccc5nc([C@@H]6CCCN6C(=O)[C@@H](NC(=O)OC)C(C)C)[nH]c54)c3)cc2)[nH]1)C(C)C [Compound 50] | 1 | 0.5 | 0.4 | 10 | 0.016
COC(=O)N[C@H](C(=O)N1CCC[C@H]1c1ncc(-c2ccc(-c3ccc4c(ccc5nc([C@@H]6C[C@]7(CCOC7)CN6C(=O)[C@@H](NC(=O)OC)C(C)C)[nH]c54)c3)cc2)[nH]1)C(C)C [Compound 51] | 0.4 | 0.1 | 0.07 | 2 | 0.016
COC(=O)N[C@H](C(=O)N1C[C@]2(CCCCO2)C[C@H]1c1nc(-c2ccc(-c3ccc4c(ccc5nc([C@@H]6CCCN6C(=O)[C@@H](NC(=O)OC)C(C)C)[nH]c54)c3)cc2)c[nH]1)C(C)C [Example 2] | 0.3 | 0.1 | 0.2 | 1 | 0.007
COC(=O)N[C@H](C(=O)N1C[C@@]2(CCCCO2)C[C@H]1c1nc(-c2ccc(-c3ccc4c(ccc5nc([C@@H]6CCCN6C(=O)[C@@H](NC(=O)OC)C(C)C)[nH]c54)c3)cc2)c[nH]1)C(C)C [Example 3] | 44 | 6 | 0.7 | 156 | 0.04
COC(=O)N[C@H](C(=O)N1C[C@]2(CCCO2)C[C@H]1c1ncc(-c2ccc(-c3ccc4c(ccc5nc([C@@H]6CCCN6C(=O)[C@@H](NC(=O)OC)C(C)C)[nH]c54)c3)cc2)[nH]1)C(C)C [Example 81] | 0.4 | 0.3 | 0.2 | 3 | 0.013
COC(=O)N[C@H](C(=O)N1C[C@@]2(CCCO2)C[C@H]1c1ncc(-c2ccc(-c3ccc4c(ccc5nc([C@@H]6CCCN6C(=O)[C@@H](NC(=O)OC)C(C)C)[nH]c54)c3)cc2)[nH]1)C(C)C [Example 82] | 46 | 14 | 0.2 | 5 | 0.008
COC(=O)N[C@H](C(=O)N1CC2(CCOCC2)C[C@H]1c1ncc(-c2ccc(-c3ccc4c(ccc5nc([C@@H]6CCCN6C(=O)[C@@H](NC(=O)OC)C(C)C)[nH]c54)c3)cc2)[nH]1)C(C)C [Example 83] | 6 | 0.9 | 1 | 0.7 | 0.042
COC(=O)N[C@H](C(=O)N1CCC[C@H]1c1nc2ccc3cc(-c4ccc5c(ccc6nc([C@@H]7CCCN7C(=O)[C@@H](NC(=O)OC)C(C)C)[nH]c65)c4)ccc3c2[nH]1)C(C)C [Example 101] | 6 | 1 | 0.5 | 0.05 | 0.021
COC(=O)N[C@H](C(=O)N1CCC[C@H]1c1ncc(-c2ccc(-c3ccc4c(ccc5nc([C@@H]6CCCN6C(=O)[C@@H](NC(=O)OC)C(C)C)[nH]c54)c3)cc2)[nH]1)C(C)C [Example 102] | 8 | 1 | 0.6 | 0.06 | 0.014
COC(=O)N[C@H](C(=O)N1CCC[C@H]1c1nc2ccc(C#Cc3ccc4c(ccc5nc([C@@H]6CCCN6C(=O)[C@@H](NC(=O)OC)C(C)C)[nH]c54)c3)cc2[nH]1)C(C)C [Example 103] | 29 | 6 | 2 | 0.3 | 0.004
